Data from patent US8569580B2, “Transformed plants or algae with highly expressed chloroplast protein BPG2” (Riken, priority 2010, dated 2013).

What was measured:
[1] = system: Arabidopsis thaliana seedlings; assay: Measurement of chlorophyll a and b in seedlings; assay type: in vivo; conditions: 4 days, long days
Description: Arabidopsis thaliana Columbia-0 (Col-0) was used as the wild type. For cotyledon analysis, plants were germinated and grown on ½ MS medium (Duchefa) containing 1.5% sucrose and 0.9% phytoagar (Duchefa), with or without Brz. Germinated plants were transferred to soil. Conditions in the growth chamber were 16 h light (100 μE m^−2 sec^−1 white light)/8 h dark at 22° C. […] Plants were homogenized in 80% (v/v) acetone. The chlorophyll content of the centrifuged supernatants was determined at 645 nm and 663 nm. Chlorophyll a and b content were determined according to Arnon (1949): Chlorophyll a (μg/mg fresh weight)=(12.7A663−[…])/mg fresh weight Chlorophyll b (μg/mg fresh weight)=(22.9A645−4.67A663)/mg fresh weight

[2] = system: Arabidopsis thaliana seedlings; assay: Immunoblot analysis of chloroplast proteins; assay type: in vivo; conditions: 1 μM Brz
Description: of wild type, bpg2-1, and bpg2-2 were ground in liquid nitrogen and extracted by boiling with two volumes/fresh weight of 1× Laemmli buffer [50 mM Tris-HCl (pH 6.8), 100 mM DTT, 2% (w/v) SDS, 0.1% (w/v) bromophenol blue, and 10% (w/v) glycerol] for immunoblot analysis of Rubisco LSU, SSU, and LHCP. Total proteins for immunoblot analysis of D1 protein were prepared as described (Nakajima et al., 1996). Proteins were separated by SDS-PAGE (12.5% acrylamide separating gel). After electrophoresis, the proteins were stained with Coomassie Brilliant Blue or electrophoretically transferred to Hybond ECL nitrocellulose membrane (Amersham). After blocking overnight in TBS (20 mM Tris, 0.137 M NaCl, pH7.4, 0.05% polyoxyethlene sorbital monolaurate) buffer containing 5% non-fat milk (Morinagamilk) at room temperature, the membrane was incubated in TBS buffer containing non-fat milk with polyclonal antibody for 1 h at room temperature. After washing in TBS buffer, the blots were incubated with horseradish peroxidase-conjugated secondary antibody (Promega for Rubisco L/S and LHCP, and Cosmo Bio for D1) for 1 h at room temperature, and the complexes were made visible with ECL Immoblin Western (Millipore). The polyclonal antibody against the tobacco Rubisco L/S complex was provided by F. Sato of Kyoto University. The polyclonal antibody against D1 and LHCP protein was obtained from Agrisera. LAS-4000 mini (Fuji Film) was used for detection.
To analyze BPG2 function with BR on chloroplast protein accumulation, we performed immunoblot analysis seedlings of wild type and bpg2 mutants in the light with and without Brz (FIG. 10). In wild type, Rubisco LSU protein from Brz-treated seedlings increased about 1.4-fold and D1 protein increased about 1.3-fold compared to that of no-Brz seedlings (FIG. 10a, b). […] The effect of BPG2 deficiency on LHCP protein was much smaller than on D1 and Rubisco LSU.

wild-type Arabidopsis = assay: RT-PCR analysis of gene expression in dark-grown plants with Brz; assay type: in vivo, Arabidopsis thaliana; conditions: wild type grown in the dark 7 days with Brz 0.1, 1, 3 μM
From the text: FIG. 6. Inducible expression of BPG2 by light and Brz. (a) RT-PCR analysis of BPG2 gene expression in different organs: root (R), stem (S), rosette leaf blade (LB), rosette leaf petiole (LP), cauline leaves (CL), and flowers (F) of wild-type Arabidopsis. ACT2 served as an internal control. (b) RT-PCR analysis of expression of BPG2, CAB, and rbcS after exposure to light. Total RNAs were extracted from the wild type germinated in the dark for 7 days and exposed to light for 0 (lane 1, 0), 0.5 (lane 2, 0.5), 1 (lane 3, 1), 2 (lane 4, 2), or 4 h (lane 5, 4), and from 7-day-old wild type under long-day conditions (16 h light and 8 h dark; lane 6, L). (c) RT-PCR analysis of expression of BPG2, CAB, rbcS, and DWF4 on Brz. Total RNAs were extracted from wild type germinated in the dark for 7 days with Brz.
Total RNA was extracted from wild type and bpg2 mutants with the RNeasy Plant mini kit (Qiagen). First strand cDNA was synthesized with Super Script III first-strand cDNA synthesis for RT (Invitrogen) and used as template. RT-PCR was performed with Ex Taq (Takara Bio). […]

[3] = system: Arabidopsis bpg2 mutants and wild type; assay: Northern blot analysis of photosynthesis gene expression; assay type: in vivo, Arabidopsis thaliana; conditions: bpg2 mutants versus wild type, dark grown 5-day seedlings, 1 μM Brz
Description: FIG. 7. Chloroplast gene expression in bpg2 mutants. Total RNA was extracted from light grown 4-day-old seedlings (a), 3-week-old rosette leaves (b) and dark grown 5-day-seedling (c) of wild type (WT), bpg2-1, and bpg2-2. Northern blot analysis was carried out using probes for psbA and rbcL, encoded in the chloroplast, and rbcS, CAB, and 18S rRNA, encoded in the nucleus. (c) Seedlings were germinated with 0 or 1 μM Brz in the dark.
Total RNA was extracted from light grown 4-day-old seedlings, 3-week-old rosette leaves and dark grown 5-day-old seedlings of wild type, bpg2-1 and bpg2-2 with the RNeasy Plant Mini kit (Qiagen). Total RNA (3 μg) was separated in 1.2% agarose/0.66 M formaldehyde gels and blotted on Hybond N^+ (Amersham). After transfer, the ECL Direct Nucleic Acid Labeling and Detection system (GE Healthcare) was used for hybridization, and LAS-4000 mini (Fuji Film) was used for analysis of chemical fluorescence.

Arabidopsis bpg2-1 = assay: Hypocotyl phenotype when grown with Brz in the dark; assay type: in vivo, Arabidopsis thaliana; conditions: bpg2-1 grown with Brz in the dark (data not shown)
[4] = target: cytochrome P450 steroid C-22 hydroxylase encoded by the DWF4 gene (Arabidopsis thaliana, UniProt O64989); conditions: Asami et al., 2000, 2001; cited from earlier work
Sequence of cytochrome P450 steroid C-22 hydroxylase encoded by the DWF4 gene (O64989 whole entry): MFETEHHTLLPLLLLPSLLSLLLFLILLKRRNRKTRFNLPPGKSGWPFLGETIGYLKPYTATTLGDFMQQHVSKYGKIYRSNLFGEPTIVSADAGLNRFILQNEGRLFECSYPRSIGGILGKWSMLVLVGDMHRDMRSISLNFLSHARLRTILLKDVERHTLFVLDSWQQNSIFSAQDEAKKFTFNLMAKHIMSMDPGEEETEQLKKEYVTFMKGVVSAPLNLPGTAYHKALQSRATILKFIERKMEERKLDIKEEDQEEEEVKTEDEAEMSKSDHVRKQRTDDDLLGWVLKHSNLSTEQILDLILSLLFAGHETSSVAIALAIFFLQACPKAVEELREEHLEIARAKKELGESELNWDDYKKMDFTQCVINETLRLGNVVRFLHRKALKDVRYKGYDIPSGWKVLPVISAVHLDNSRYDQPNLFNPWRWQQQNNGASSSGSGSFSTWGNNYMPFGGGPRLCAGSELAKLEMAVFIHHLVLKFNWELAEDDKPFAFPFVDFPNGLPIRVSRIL

[5] = wild type, germinated in the light for 3 days

CC(O)(c1ccccc1)C(Cc1ccc(Cl)cc1)n1cncn1 (centres unmarked) [Brz, brassinazole]
chlorophyll levels following Brz treatment ([1]; bpg2:35S-BPG2 transformants, Brz 1 μM): increase in chlorophyll levels | endogenous chlorophyll a and b levels ([1]; wild-type seedlings, Brz 0.1 and 1 μM, light): increased | D1 protein of Brz-treated seedlings ([2]; bpg2 mutants, light 3 days): the same as in no-Brz seedlings | Rubisco LSU protein of Brz-treated seedlings ([2]; bpg2 mutants, light 3 days): the same as in no-Brz seedlings | induction of Rubisco LSU protein and D1 protein by Brz ([2]; clpB3 and clpC1 mutants, light 3 days): no induction | D1 protein, Brz-treated compared to no-Brz seedlings [2, 5]: about 1.3 fold | Rubisco LSU protein, Brz-treated compared to no-Brz seedlings [2, 5]: about 1.4 fold | Rubisco SSU protein ([2]; wild type, light 3 days): increased | nuclear encoded-LHCP protein ([2]; wild type, light 3 days): increased | BPG2 gene expression (wild-type Arabidopsis): actually increased | expression of CAB and rbcS (wild-type Arabidopsis): increased | expression of psbA, rbcL, CAB and rbcS [3]: to the same degree in bpg2 mutants as in wild type | hypocotyl phenotype (Arabidopsis bpg2-1): same short hypocotyl as the wild type plants | binding to cytochrome P450 steroid C-22 hydroxylase (DWF4) [4]: binds directly
